Data: US5258492A, “LHRH analogues with cytotoxic moieties at the sixth position” (The Administrators of the Tulane Educational Fund, priority 1991, dated 1993)

Experiments:
[1] = target: T1, membrane receptors of human breast cancer cells (Homo sapiens, UniProt P30968); experiment: Binding affinity for membrane receptors of human breast cancer cells using 125I-labeled [D-Trp6]LHRH
T1 construct: endogenous in cells; host or cells: human breast cancer cells (membranes)
T1 sequence (P30968 1-328): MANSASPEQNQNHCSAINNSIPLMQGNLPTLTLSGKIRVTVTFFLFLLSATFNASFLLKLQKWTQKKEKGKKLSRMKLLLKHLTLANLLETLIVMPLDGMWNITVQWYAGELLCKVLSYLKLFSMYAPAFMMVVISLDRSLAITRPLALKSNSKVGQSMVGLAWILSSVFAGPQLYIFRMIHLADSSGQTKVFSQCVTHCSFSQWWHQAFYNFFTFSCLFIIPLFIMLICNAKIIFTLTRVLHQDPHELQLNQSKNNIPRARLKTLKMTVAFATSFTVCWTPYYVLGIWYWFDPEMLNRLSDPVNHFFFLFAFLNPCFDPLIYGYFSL
Description: (§1) This is determined by using labelled LHRH and [D-Trp^6 ]LHRH. The assay is carried out similarly to that described by T. Kadar et al., Proc. Natl. Acad. Sci. USA, 85, 890-894 (1988).
(§2) Table 2 presents the antiovulatory activity of the claimed compounds having LHRH-inhibiting properties. The inhibitory action was determined in vivo, in 4-day cycling rats as described [A. Corbin and C. W. Beattie, Endocr. Res. Commun., 2, 1-23 (1975)]. Affinities of the claimed compounds to membrane receptors of rat pituitary and human breast cancer cells are also given in Tables 1 and 2 as determined by using [^125 I,D-Trp^6 ]LHRH.
(§3) **Affinity constants of the peptides for the first receptor class (i.e.
(§4) for high affinity binding sites) of pituitary of male rats and human
(§5) breast cancer cells, respectively, as determined by using ^125
(§6) Ilabeled [DTrp^6 ]LHRH.
(§7) breast cancer cells, respectively, were determined by using ^125

[2] = target: T2, membrane receptors of pituitary of male rats (Rattus norvegicus, UniProt P30969); experiment: Binding affinity for membrane receptors of rat pituitary using 125I-labeled [D-Trp6]LHRH
T2 construct: from tissue; host or cells: pituitary of male rats (membranes)
T2 sequence (P30969 1-327): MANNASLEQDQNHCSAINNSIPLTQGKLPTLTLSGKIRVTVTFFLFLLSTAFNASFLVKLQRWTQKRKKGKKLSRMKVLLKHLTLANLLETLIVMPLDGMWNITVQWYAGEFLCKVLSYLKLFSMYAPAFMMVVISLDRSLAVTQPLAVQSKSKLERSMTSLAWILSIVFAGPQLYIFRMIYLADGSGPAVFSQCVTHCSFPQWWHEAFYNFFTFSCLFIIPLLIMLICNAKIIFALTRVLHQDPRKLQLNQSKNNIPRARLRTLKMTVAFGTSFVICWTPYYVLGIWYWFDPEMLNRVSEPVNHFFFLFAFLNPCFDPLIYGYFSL
Description: as §1, §2, §3, §4, §5, §6, §7

4-day cycling rats = experiment: In vivo antiovulatory activity in 4-day cycling rats; design: species or system rat
Description: This activity of the peptides is determined in 4-day-cycling rats as described [A. Corbin and C. W. Beattie, Endocr. Res. Commun., 2, 1-23 (1975)].
as §2
*LHRH-inhibiting potencies were assayed in 4day cyclic rats.

[3] = system: dispersed rat pituitary cell superfusion system; experiment: LH release in dispersed rat pituitary cell superfusion system (agonistic activity); type: cell-based; details: Table 1; peptide infused 3 min, LH released compared to 3 nM LHRH
Description: *LH responses to the analogues were determined in dispersed rat pituitary
cell superfusion system.

[4] = system: rat mammary tumor cell line MT-4; experiment: Inhibition of 3H-thymidine incorporation into DNA of MT-4 monolayer cultures; type: cell-based; details: for DPM/Well × 1000: mean +/- standard error
Description: (d) Ability of peptides of Formula I to inhibit incorporation of [^3 H]thymidine into DNA of monolayer cultures the rat mammary tumor cell line MT-4
This is assayed as described [V. K. Sondak et al., Cancer Research, 44, 1725-1728 (1984); F. Holzel et al., J. Cancer Res. Clin. Oncol. 109, 217-226 (1985); M. Albert et al., J. Cancer Res. Clin. Oncol. 109, 210-216 (1985)].
To obtain information about the cytotoxic properties of the compounds, the inhibition of ^3 H-thymidine incorporation into DNA of monolayer cultures of the rat mammary tumor cell line MT-4 was studied. Experiments started with 100K MT-4 cells/plate on day 0. Dose was changed 3 times, total incubation time with the sample was 5 days. 1 μCu ^3 H-thymidine/ml was added on day 4.

[5] = Table 2, high affinity binding sites
[6] = Table 1, high affinity binding sites
[7] = DME Medium + 0% Serum, 1 ng/ml (6 × 10^-10 M)
[8] = DME Medium + 0% Serum, 10 ng/ml
[9] = DME Medium + 0% Serum, 100 ng/ml
[10] = DME Medium + 0% Serum, 1000 ng/ml
[11] = DME Medium + 0% Serum, 2000 ng/ml
[12] = DME Medium + 10% Serum, 1 ng/ml (6 × 10^-10 M)
[13] = DME Medium + 10% Serum, 10 ng/ml
[14] = DME Medium + 10% Serum, 100 ng/ml
[15] = DME Medium + 10% Serum, 1000 ng/ml
[16] = DME Medium + 10% Serum, 2000 ng/ml

Ac-D-Nal(2)-D-Phe(4 Cl)-D-Trp-Ser-Arg-D-Lys[(Cu^++)(POL)2 (DL-A2 pr)]-Leu-Arg-Pro-D-Ala-NH2 [Example XXIII]
Binding affinity, Ka1, for membrane receptors of cancer cells [1, 5]: 3.408 nM⁻¹ | Binding affinity, Ka1, for membrane receptors of pituitary [2, 5]: 7.622 nM⁻¹ | % Blockade of ovulation (4-day cycling rats; Dose 10 μg/rat): 40%

Ac-D-Nal(2)-D-Phe(4Cl)-D-Pal(3)-Ser-Arg-D-Lys[(Cu^++)(POL)2 (DL-A2 pr)]-Leu-Arg-Pro-D-Ala-NH2 [XXIV]
Binding affinity, Ka1, for membrane receptors of cancer cells [1, 5]: 2.628 nM⁻¹ | Binding affinity, Ka1, for membrane receptors of pituitary [2, 5]: 5.483 nM⁻¹ | % Blockade of ovulation (4-day cycling rats; Dose 3 μg/rat): 50%

Ac-D-Nal(2)-D-Phe(4Cl)-D-Pal(3)-Ser-Arg-D-Lys[(Cu^++)(POLP)2 (DL-A2 pr)]-Leu-Arg-Pro-D-Ala-NH2 [Example XX]
Binding affinity, Ka1, for membrane receptors of cancer cells [1, 5]: 2.436 nM⁻¹ | Binding affinity, Ka1, for membrane receptors of pituitary [2, 5]: 5.250 nM⁻¹ | % Blockade of ovulation (4-day cycling rats; Dose 3 μg/rat): 80%

Ac-D-Nal(2)-D-Phe(4Cl)-D-Pal(3)-Ser-Arg-D-Lys[(Cu^++)(SAL)2 (A2 bu-Eac)]-Leu-Arg-Pro-D-Ala-NH2 [XXVIII]
Binding affinity, Ka1, for membrane receptors of cancer cells [1, 5]: 0.192 nM⁻¹

Ac-D-Nal(2)-D-Phe(4Cl)-D-Pal(3)-Ser-Arg-D-Lys[(Ni^++)(SAL)2 (DL-A2 pr)]-Leu-Arg-Pro-D-Ala-NH2 [XIII]
Binding affinity, Ka1, for membrane receptors of cancer cells [1, 5]: 0.878 nM⁻¹ | Binding affinity, Ka1, for membrane receptors of pituitary [2, 5]: 1.821 nM⁻¹ | % Blockade of ovulation (4-day cycling rats; rat, in vivo): 100

Ac-D-Nal(2)-D-Phe(4Cl)-D-Pal(3)-Ser-Arg-D-Lys[(PtCl2)-A2 bu-Eac)]-Leu-Arg-Pro-D-Ala-NH2 [XXVII]
Binding affinity, Ka1, for membrane receptors of cancer cells [1, 5]: 2.152 nM⁻¹

[D-Lys[(Cu^++)(SAL)2 (L-A2 pr)]^6 ]LHRH [VIA]
Binding affinity, Ka1, for membrane receptors of cancer cells [1, 6]: 1.348 nM⁻¹ | Binding affinity, Ka1, for membrane receptors of pituitary [2, 6]: 3.051 nM⁻¹ | Hormonal activity, LH responses rel. to LHRH (= 1) [3]: 12

[D-Lys[(Ni^++)(SAL)2(D-A2 pr)]^6 ]LHRH [VIIIB]
Binding affinity, Ka1, for membrane receptors of cancer cells [1, 6]: 3.334 nM⁻¹ | Binding affinity, Ka1, for membrane receptors of pituitary [2, 6]: 6.457 nM⁻¹ | Hormonal activity, LH responses rel. to LHRH (= 1) [3]: 10

[D-Lys[(Ni^++)(SAL)2(L-A2 pr)]^6 ]LHRH [VIIIA]
Binding affinity, Ka1, for membrane receptors of cancer cells [1, 6]: 5.234 nM⁻¹ | Binding affinity, Ka1, for membrane receptors of pituitary [2, 6]: 9.710 nM⁻¹ | Hormonal activity, LH responses rel. to LHRH (= 1) [3]: 12

pGlu-His-Trp-Ser-Tyr-D-Lys[(Cu^++)(CISAL)2 (DL-A2 pr)]-Leu-Arg-Pro-Gly-NH2 [Example IX]
Binding affinity, Ka1, for membrane receptors of cancer cells [1, 6]: 3.995 nM⁻¹ | Binding affinity, Ka1, for membrane receptors of pituitary [2, 6]: 8.625 nM⁻¹ | Hormonal activity, LH responses rel. to LHRH (= 1) [3]: 10

pGlu-His-Trp-Ser-Tyr-D-Lys[(Cu^++)(FUR)2 (DL-A2 pr)]-Leu-Arg-Pro-Gly-NH2 [XVII]
Binding affinity, Ka1, for membrane receptors of cancer cells [1, 6]: 0.536 nM⁻¹ | Binding affinity, Ka1, for membrane receptors of pituitary [2, 6]: 1.770 nM⁻¹ | Hormonal activity, LH responses rel. to LHRH (= 1) [3]: 10

pGlu-His-Trp-Ser-Tyr-D-Lys[(Cu^++)(PEN)2 (A2 pr)]-Leu-Arg-Pro-Gly-NH2 [Example XXI]
Binding affinity, Ka1, for membrane receptors of cancer cells [1, 6]: 5.096 nM⁻¹ | Binding affinity, Ka1, for membrane receptors of pituitary [2, 6]: 10.989 nM⁻¹ | Hormonal activity, LH responses rel. to LHRH (= 1) [3]: 10.6

pGlu-His-Trp-Ser-Tyr-D-Lys[(Cu^++)(POL)2 (DL-A2 bu)]-Leu-Arg-Pro-Gly-NH2 [XXV]
Binding affinity, Ka1, for membrane receptors of cancer cells [1, 6]: 3.141 nM⁻¹ | Binding affinity, Ka1, for membrane receptors of pituitary [2, 6]: 6.405 nM⁻¹ | Hormonal activity, LH responses rel. to LHRH (= 1) [3]: 5.5

pGlu-His-Trp-Ser-Tyr-D-Lys[(Cu^++)(POLP)2 (DL-A2 bu)]-Leu-Arg-Pro-Gly-NH2 [Example XVI]
Binding affinity, Ka1, for membrane receptors of cancer cells [1, 6]: 5.038 nM⁻¹ | Binding affinity, Ka1, for membrane receptors of pituitary [2, 6]: 9.751 nM⁻¹ | Hormonal activity, LH responses rel. to LHRH (= 1) [3]: 1.5

pGlu-His-Trp-Ser-Tyr-D-Lys[(Cu^++)(SAL)2 (A2 pr)]-Leu-Arg-Pro-Gly-NH2 [Example VII]
Binding affinity, Ka1, for membrane receptors of cancer cells [1, 6]: 3.589 nM⁻¹ | Binding affinity, Ka1, for membrane receptors of pituitary [2, 6]: 7.968 nM⁻¹ | % Inhibition [4, 7]: 41% | DPM/Well × 1000 [4, 7]: 249 +/- 30.5 DPM/Well × 1000 | % Inhibition [4, 8]: 42% | DPM/Well × 1000 [4, 8]: 242 +/- 32.1 DPM/Well × 1000 | % Inhibition [4, 9]: 56% | DPM/Well × 1000 [4, 9]: 186 +/- 13.2 DPM/Well × 1000 | % Inhibition [4, 10]: 52% | DPM/Well × 1000 [4, 10]: 204 +/- 40.9 DPM/Well × 1000 | % Inhibition [4, 11]: 41% | DPM/Well × 1000 [4, 11]: 249 +/- 45.1 DPM/Well × 1000 | % Inhibition [4, 12]: 53% | DPM/Well × 1000 [4, 12]: 48 +/- 8.6 DPM/Well × 1000 | % Inhibition [4, 13]: 61% | DPM/Well × 1000 [4, 13]: 40 +/- 6.7 DPM/Well × 1000 | % Inhibition [4, 14]: 59% | DPM/Well × 1000 [4, 14]: 42 +/- 10.4 DPM/Well × 1000 | % Inhibition [4, 15]: 65% | DPM/Well × 1000 [4, 15]: 36 +/- 5.1 DPM/Well × 1000 | % Inhibition [4, 16]: 62% | DPM/Well × 1000 [4, 16]: 39 +/- 4.6 DPM/Well × 1000 | inhibition of 3H-thymidine incorporation into DNA (in words) ([4]; concentration of 6×10^-10 M): strong inhibitory effect | Hormonal activity, LH responses rel. to LHRH (= 1) [3]: 10

pGlu-His-Trp-Ser-Tyr-D-Lys[(Cu^++)(SAL)2 (DL-A2 bu)]-Leu-Arg-Pro-Gly-NH2 [XIV]
Binding affinity, Ka1, for membrane receptors of cancer cells [1, 6]: 1.628 nM⁻¹ | Binding affinity, Ka1, for membrane receptors of pituitary [2, 6]: 5.589 nM⁻¹ | Hormonal activity, LH responses rel. to LHRH (= 1) [3]: 25

pGlu-His-Trp-Ser-Tyr-D-Lys[(Ni^++)(CISAL)2 (DL-A2 pr)]-Leu-Arg-Pro-Gly-NH2 [Example X]
Binding affinity, Ka1, for membrane receptors of cancer cells [1, 6]: 2.236 nM⁻¹ | Binding affinity, Ka1, for membrane receptors of pituitary [2, 6]: 4.513 nM⁻¹ | Hormonal activity, LH responses rel. to LHRH (= 1) [3]: 4

pGlu-His-Trp-Ser-Tyr-D-Lys[(PtCl2)(DL-A2 pr)]-Leu-Arg-Pro-Gly-NH2 [Example III]
Binding affinity, Ka1, for membrane receptors of cancer cells [1, 6]: 1.743 nM⁻¹ | Binding affinity, Ka1, for membrane receptors of pituitary [2, 6]: 3.285 nM⁻¹ | Hormonal activity, LH responses rel. to LHRH (= 1) [3]: 55

pGlu-His-Trp-Ser-Tyr-D-Lys[Cu^++)(POL)2 (DL-A2 pr)]-Leu-Arg-Pro-Gly-NH2 [XVIII]
Binding affinity, Ka1, for membrane receptors of cancer cells [1, 6]: 3.005 nM⁻¹ | Binding affinity, Ka1, for membrane receptors of pituitary [2, 6]: 5.817 nM⁻¹ | Hormonal activity, LH responses rel. to LHRH (= 1) [3]: 9

pGlu-His-Trp-Ser-Tyr-D-Lys[Cu^++)(POLP)2 (A2 pr)]-Leu-Arg-Pro-Gly-NH2 [XIX]
Binding affinity, Ka1, for membrane receptors of cancer cells [1, 6]: 4.528 nM⁻¹ | Binding affinity, Ka1, for membrane receptors of pituitary [2, 6]: 8.676 nM⁻¹ | Hormonal activity, LH responses rel. to LHRH (= 1) [3]: 0.3
